The values that follow come from ChEMBL document CHEMBL1152429, “Design and synthesis of new 1,3-benzthiazinan-4-one derivatives as selective cyclooxygenase (COX-2) inhibitors” (Bioorg Med Chem, 2009).

For experiment [1], the target named is T1, Prostaglandin G/H synthase 1 (Ovis aries, UniProt P05979).
T1 sequence (P05979 whole entry): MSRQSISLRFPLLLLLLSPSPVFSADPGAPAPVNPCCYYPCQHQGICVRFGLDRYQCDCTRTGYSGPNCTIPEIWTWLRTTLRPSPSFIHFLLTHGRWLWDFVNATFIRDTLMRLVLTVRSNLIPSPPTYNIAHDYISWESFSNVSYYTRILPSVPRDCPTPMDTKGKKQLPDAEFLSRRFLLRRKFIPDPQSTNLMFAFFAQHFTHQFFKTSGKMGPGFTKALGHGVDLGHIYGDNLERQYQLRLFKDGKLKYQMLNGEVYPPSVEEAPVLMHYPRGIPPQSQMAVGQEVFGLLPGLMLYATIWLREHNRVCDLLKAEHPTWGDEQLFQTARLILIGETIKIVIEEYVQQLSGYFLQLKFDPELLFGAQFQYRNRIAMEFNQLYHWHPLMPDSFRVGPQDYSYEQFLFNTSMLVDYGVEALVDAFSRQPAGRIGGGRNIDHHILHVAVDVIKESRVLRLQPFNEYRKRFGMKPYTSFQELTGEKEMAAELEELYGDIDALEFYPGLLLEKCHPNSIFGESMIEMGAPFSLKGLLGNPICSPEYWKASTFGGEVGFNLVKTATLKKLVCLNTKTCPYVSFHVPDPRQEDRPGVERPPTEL
Description: Inhibition of ovine COX1 by chemiluminescence assay

The species named for another experiment is Ovis aries. Kind of experiment: Selectivity index, ratio of IC50 for ovine COX1 to IC50 for ovine COX2.

For orientation: IC50 means the concentration that gives 50% inhibition. A higher IC50 goes with lower potency. Turning to `COc1ccc(N2C(=O)c3ccccc3SC2c2ccc(S(C)(=O)=O)cc2)cc1` (configuration not stated), half-maximal inhibition in experiment [1] (IC50) was put at 14.8 µM. In other words, the double-digit micromolar range.
Regarding `Cc1ccc(N2C(=O)c3ccccc3SC2c2ccc(S(C)(=O)=O)cc2)cc1` (configuration not stated), the Ratio IC50 in the experiment listed under Ovis aries came out at 252. In experiment [1], this compound returned an IC50 of 16.1 µM.
Turning to `CS(=O)(=O)c1ccc(C2Sc3ccccc3C(=O)N2c2ccccc2)cc1` (configuration not stated), the IC50 in experiment [1] came to 16.5 µM.
The same measure, in the same setting: for `CS(=O)(=O)c1ccc(C2Sc3ccccc3C(=O)N2c2ccc(F)cc2)cc1` (configuration not stated) the value was 13 µM.
With `CS(=O)(=O)c1ccc(C2Sc3ccccc3C(=O)N2CCc2ccccc2)cc1` (configuration not stated), in experiment [1], the IC50 came to 15.9 µM.
Still for that read-out and setting: for `CS(=O)(=O)c1ccc(C2Sc3ccccc3C(=O)N2Cc2ccccc2)cc1` (configuration not stated) the value was 15.8 µM.
